Measurements published in patent US8367004B2, “Apparatus and methods for nanoparticle generation and process intensification of transport and reaction systems” (Microfluidics International Corporation, priority 2008, dated 2013).
Values joined by “and” are separate entries in the source; they are usually repeats but may differ in a detail not shown here. Equal values may be shown once. Each block holds one compound with its values, some of them ahead of it.

Legend:
Assay type in all cases: physicochemical
[1] = Particle size analysis of drug nanosuspensions by light scattering
Description: Crystallization experiments were performed using an exemplary reaction processor of the type depicted in FIG. 3. The solvent phase was fed into an intensifier pump using a peristaltic pump. The water phase was placed in the inlet reservoir and gravity fed. The two streams were blended at the inlet to the intensifier pump, noting that a low level of macro-mixing will occur at this process stage.
The total flow rate through the system was controlled by the microreactor design and process pressure. By varying the flow rate through the peristaltic pump at each processing pressure, various mixing ratios of the two streams were achieved. The following solvent-to-water volume ratios were examined: 1:3, 1:4, and 1:10. Equivalently, the water concentrations in the final mixture by weight were […], respectively. A total of 250 ml were processed in each experiment.
In addition to super-saturation, the effect of process pressure, NFN concentration in the solvent stream, and the presence of a surfactant were investigated. […] The concentration of NFN in DMSO varied from 5 to 20 mg NFN/ml DMSO. To determine if a surface active agent could help control particle size, a 1% aqueous solution of Suluton (BASF) was used to replace water as the anti-solvent, the concept being that the hydrophobic group of this amphoteric molecule would interact with the crystal surface at some threshold size, forming a barrier to further transport to and/or along the surface.
To provide appropriate controls for comparison, additional crystal production experiments were conducted by mixing the NFN/DMSO solution with water in a beaker at very low shear conditions. After mixing to obtain uniformity, NFN was allowed to form crystals under quiescent conditions. Size and shape characterization studies were performed. The crystals were then suspended in a saturated solution to conduct particle size reduction experiments under high shear rates using standard Microfluidizer® technology. The purpose was to compare this size reduction process on already grown crystals (“top-down” process) with the in situ process of growing crystal to the desired size with the apparatus/system of the present disclosure (“bottom-up” process).
The particle size distribution of the nano-suspensions was measured by two different methods: • (a) Light scattering using a Horiba 910 particle size analyzer: This instrument has a wide dynamic range of between 20 nm-1000 microns. • (b) Dynamic light scattering using a Malvern NanoS particle size analyzer: This instrument has a dynamic range of 0.5 nm-6 microns
(§1) Crystallization experiments using the disclosed apparatus/system were conducted at 138 and 83 MPa (20,000 and 12,000 psi) process pressures. […] The solvents were either dimethyl sulfoxide (DMSO) or N-Methyl-2-Pyrrolidone (NMP), and the antisolvent was water (see TABLE 3). Of note, alternative solvents include methanol, ethanol, acetone, dichloromethane, octanol and isopropyl alcohol, and alternative antisolvents include hexane and heptane. The water volume flow rate was typically 3-10 times the solvent volume flow rate, resulting in supersaturation between 1.4 and 9.
For the “top down” control experiments, suspensions of micron size crystals were processed with a conventional Microfluidizer® high shear processor. These crystals had been grown under no shear conditions by pouring the solvent and antisolvent streams into a beaker and then allowing the crystals to grow without stirring the fluids.
(§2) Material characterization was performed in the same manner as described above with reference to Example 1.

[2] = Electron microscopy of particle dimensions and shape
Description: A Hitachi S-4800 field-emission SEM was used to examine the surface structure and shape of the drug particles and also to verify qualitatively the particle size obtained from the particle size analyzers.
as §2

[3] = Stability of nanosuspensions
Description: as §1
A surfactant was added to the antisolvent (water) in order to: (a) stabilize the nanoparticles and limit their growth, and (b) minimize agglomeration of the particles and to thereby create a stable suspension. Two non-ionic surfactants were used, Solutol® HS 15 (polyoxyethylene esters of 12-hydroxystearic acid; […]) and a hydrophobically modified inulin polymeric surfactant, INUTEK SP1 (Orafti).

[4] = Theoretical efficiency of solvent/antisolvent crystallization; settings: 138 MPa
Source text: (§3) The solubility data were used to estimate super-saturation ratios and the theoretical efficiency of the process, which is defined as the percentage of the drug present in the solvent that precipitates as the solvent and antisolvent streams mix.

[5] = XRD percent crystallinity and crystallite size
Description: The samples were analyzed using a Rigaku Ultima III diffractometer. XRD analysis was used to investigate the effect of the processing conditions on the crystalline characteristics, i.e., structure, percent of crystallinity and crystallite size of NFN.

[6] = Solubility of NFN in water/DMSO mixtures (batch, gravimetric); settings: for NFN solubility / % NFN precipitation from saturated DMSO solution: 20° C.
Description: Water was mixed with a DMSO-NFN solution of known concentration, while maintaining miscible conditions, to obtain a super-saturation state. […] The crystals were filtered from the liquid, then dried in a vacuum oven for about 10 hours at 90° C., and weighed. The filtered liquid phase was evaporated to dryness and the mass of the solid residue determined gravimetrically. The mass balance of the NFN (total amount recovered/amount dissolved) was also determined to establish precision of the solubility limit estimate. The closure was always greater than 90 percent.
as §3

[7] = Mass transfer study, octanol phase to water phase; settings: transfer from an octanol phase to a water phase
Description: The interfacial area in process intensification equipment can be quantified by performing mass transfer studies. In particular, a solute is introduced into the system of interest (e.g. methanol and soybean oil) and the mass transfer rate of this solute from one phase to the other is measured. The interfacial area can then be calculated. In order to accomplish this determination, it is necessary to have an estimate of the mass transfer coefficients in the individual phases—which can be determined through bench-top experiments. Reactant systems may be processed in the disclosed apparatus/system and a measurement of inlet concentration of the solute is made. The system is run at different flow rates until the concentration at the outlet is equal to the equilibrium concentration. […] The interfacial area can then be obtained.

[8] = Control (beaker, no shear), Solutol, SLS
[9] = Disclosed System, solvent, surfactant, pressure per Table 3
[10] = suspension from Disclosed System
[11] = 138 MPa, 5 mg NFN/ml DMSO, DMSO:water 1:4, passed twice, Horiba
[12] = NFN nanosuspension from disclosed system, SEM
[13] = overnight, particles produced with disclosed system
[14] = particles produced with control method

median particle size ([1]; 60 MPa, 10 mg/ml DMSO, DMSO:water 1:4, passed twice): approximately 320 nm
median particle size [1, 11]: 186 nm
peak of particle size distribution [1, 11]: 166 nm
median particle size ([1]; 138 MPa, DMSO:water 1:4, passed twice, 5 mg NFN/g DMSO): approximately 190 nm
median particle size ([1]; 138 MPa, DMSO:water 1:4, passed twice, 20 mg NFN/g DMSO): ~340 nm
median particle size ([1]; 140 MPa, 10 mg/ml DMSO, DMSO:water 1:4, passed twice): about 200 nm
median particle size ([1]; NFN nanosuspensions, range over all Example 1 experiments): 170-350 nm
median particle size ([1]; control crystals after 30 passes at 207 MPa in standard Microfluidizer (top-down)): 428 nm
median particle size ([1]; with Suluton surfactant): 204 nm
median particle size ([1]; without surfactant): 209 nm
theoretical efficiency (percentage of NFN that precipitates) ([4]; supersaturation ratio about 1.5): 32%
theoretical efficiency (percentage of NFN that precipitates) ([4]; supersaturation ratio about 7): 85%
Average Crystallite Size ([5]; As purchased): 441 Å
Percent Crystallinity (±4%) ([5]; As purchased): 84.1%
Average Crystallite Size ([5]; Re-crystallized (high shear)): 239 Å
Percent Crystallinity (±4%) ([5]; Re-crystallized (high shear)): 79.7%
Average Crystallite Size ([5]; Re-crystallized (low shear)): 275 Å
Percent Crystallinity (±4%) ([5]; Re-crystallized (low shear)): 78% and 77.8%
Average Crystallite Size ([5]; Re-crystallized (no shear)): 727 Å
Percent Crystallinity (±4%) ([5]; Re-crystallized (no shear)): 85% and 85.1%
needle length [2, 12]: 200-300 nm
needle width [2, 12]: 70-100 nm
particle length ([2]; crystallized in low shear environment (control)): up to 1 mm
NFN solubility ([6]; 0.00 wt % water in water/DMSO solution): 21.00 mg drug/g solution
% NFN precipitation from saturated DMSO solution ([6]; 0.00 wt % water): 0.00%
NFN solubility ([6]; 9.17 wt % water in water/DMSO solution): 7.18 mg drug/g solution
% NFN precipitation from saturated DMSO solution ([6]; 9.17 wt % water): 43.39%
NFN solubility ([6]; 28.04 wt % water in water/DMSO solution): 1.57 mg drug/g solution
NFN solubility ([6]; 47.62 wt % water in water/DMSO solution): 0.86 mg drug/g solution
% NFN precipitation from saturated DMSO solution ([6]; 47.62 wt % water): 91.43%
% of NFN that precipitates ([6]; 50 wt % water): about 92%
NFN solubility ([6]; 57.69 wt % water in water/DMSO solution): 0.64 mg drug/g solution
% NFN precipitation from saturated DMSO solution ([6]; 57.69 wt % water): 92.86%
NFN solubility ([6]; 73.17 wt % water in water/DMSO solution): 0.71 mg drug/g solution
% NFN precipitation from saturated DMSO solution ([6]; 73.17 wt % water): 89.52%
NFN solubility ([6]; 90.19 wt % water in water/DMSO solution): 0.00 mg drug/g solution
% NFN precipitation from saturated DMSO solution ([6]; 90.19 wt % water): 100.00%
solubility limit of NFN in DMSO ([6]; ambient temperature): about 21 mg NFN/g DMSO
reduction of NFN solubility ([6]; dilution of DMSO solution to 28 wt % water): over 13 times
Structure (SMILES): CCn1cc(C(=O)O)c(=O)c2cc(F)c(N3CCNCC3)cc21 [NFN, Norfloxacin]

interfacial transfer coefficients [7]: ≤ 0.5 m/s
Structure (SMILES): CC(=O)Oc1ccccc1C(=O)O [aspirin]

median particle size ([1]; Disclosed System, INUTEK (DMSO), DLS): 332 nm
median particle size ([1]; Disclosed System, INUTEK (NMP), DLS): 379 nm
median particle size ([1]; Disclosed System, Solutol (DMSO), DLS): 90 nm
median particle size ([1]; Disclosed System, Solutol (NMP), DLS): 183 nm
particle size ([1]; INUTEK as surfactant): 332-379 nm
initial particle size ([1]; Solutol as surfactant, DMSO and NMP): about 90 nm
Shape ([2]; Disclosed System, INUTEK (DMSO)): Needle
Shape ([2]; Disclosed System, INUTEK (NMP)): Needle
needle length [2, 13]: 10-20 microns
needle width [2, 13]: 0.5-2 microns
needle length [2, 14]: hundreds of microns
needle width [2, 14]: tens of microns
Structure (SMILES): CCOC(=O)N1CCC(=C2c3ccc(Cl)cc3CCc3cccnc32)CC1 [Loratadine]

More lines, now with the values behind:

Structure (SMILES): NC(=O)N1c2ccccc2CC(=O)c2ccccc21 [Oxycarbazepine]
Median Particle Size (needle length) [1, 8]: 20,000 nm
Median Particle Size (needle width) [1, 8]: 5000 nm
median particle size ([1]; Control with site reduction after 25 passes, SLS): 1200 nm
particles by volume in the range of 2.5-6 microns ([1]; Disclosed System): about 5%
larger peak of bimodal particle size distribution ([1]; Disclosed System, SLS): about 1 micron
smaller peak of bimodal particle size distribution ([1]; Disclosed System, SLS): about 340 nm
median particle size [1, 9]: 767 nm
needle length ([1]; control conditions (beaker)): about 20 microns
needle width ([1]; control conditions (beaker)): about 5 microns
population of particles with sizes in the range of 4-6 microns ([1]; control sample after 25 passes): about 5%
median particle size ([1]; control sample after 25 passes through standard Microfluidizer processor): 1.2 microns
Shape ([2]; Control): Needle
Stability ([3]; Control): Stable
Stability ([3]; Control with site reduction after 25 passes): Stable
Stability [3, 10]: Stable
Stability ([3]; suspension from Disclosed System, listed as oxycarbazepine): stable

Structure (SMILES): CC[C@H]1OC(=O)[C@H](C)[C@@H](O[C@H]2C[C@@](C)(OC)[C@@H](O)[C@H](C)O2)[C@H](C)[C@@H](O[C@@H]2O[C@H](C)C[C@H](N(C)C)[C@H]2O)[C@](C)(O)C[C@@H](C)CN(C)[C@H](C)[C@@H](O)[C@]1(C)O [Azithromycin]
median particle size [1, 9]: 50-100 nm
Shape ([2]; Disclosed System): Spheroidal
stability of nanosuspension ([3]; in solvent and antisolvent mixture, and in water after solvent removed): stable
Stability [3, 10]: Stable
